target: T1, Interleukin-1 receptor-associated kinase 4 (Homo sapiens, UniProt Q9NWZ3); experiment: Inhibition of recombinant human full-length His-tagged IRAK4 expressed in baculovirus infected insect cells using KKARFSRFAGSSPSQSSMVAR as substrate preincubated for 15 mins followed by substrate addition and measured after 2 hrs by LC-MS/MS analysis
T1 sequence (Q9NWZ3 whole entry): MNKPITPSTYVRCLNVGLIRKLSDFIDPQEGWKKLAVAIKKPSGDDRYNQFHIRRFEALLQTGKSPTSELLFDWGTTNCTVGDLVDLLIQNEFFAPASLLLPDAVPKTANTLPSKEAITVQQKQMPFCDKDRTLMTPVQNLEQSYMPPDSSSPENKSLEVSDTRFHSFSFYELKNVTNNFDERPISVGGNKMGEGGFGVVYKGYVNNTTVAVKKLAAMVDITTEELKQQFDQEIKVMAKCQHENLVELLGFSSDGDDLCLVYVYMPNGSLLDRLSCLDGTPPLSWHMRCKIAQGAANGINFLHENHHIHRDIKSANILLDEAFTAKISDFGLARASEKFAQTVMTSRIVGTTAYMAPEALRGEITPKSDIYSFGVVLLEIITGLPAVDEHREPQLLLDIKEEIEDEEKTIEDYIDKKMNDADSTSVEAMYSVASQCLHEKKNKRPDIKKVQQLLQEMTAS

| IC50 | SMILES |
| --- | --- |
| 0.2 nM | COc1cc2nn([C@H]3CC[C@H](N(C)C(=O)[C@@H](C)O)CC3)cc2cc1C(=O)Nc1cnc2cccnn12 |
| < 0.03 nM | CO[C@H]1C[C@H](Oc2cc3nn(C4CCC5(CC4)CN(C(C)=O)C5)cc3cc2C(=O)Nc2cnc3cccnn23)C1 |
| 0.2 nM | COc1cc2nn([C@H]3CC[C@@]4(CC3)CC(=O)N(C)C4)cc2cc1C(=O)Nc1cnc2cccnn12 |

Reference: ChEMBL document CHEMBL5137104, “Novel IRAK4 Inhibitors for Treating Asthma” (ACS Med Chem Lett, 2022)
